Assay results published in publication PMC6973020, “Quinoline‐Conjugated Ruthenacarboranes: Toward Hybrid Drugs with a Dual Mode of Action” (Chemmedchem, 2019).

Key:
[1] = test system: microtubule‐associated protein light chain 3B (LC3B); assay: Western blot analysis of LC3B, LN229; format: cell-based, human; conditions: LN229, IC50 dose
Method: mouse microglial cell line BV‐2 was a kind gift from Dr. Irena Lavrnja, Institute for Biological Research “Siniša Stanković” (University of Belgrade). Cells were routinely cultivated in HEPES‐buffered RPMI‐ […]
FCS, 2 mM L‐glutamine, 0.01% sodium pyruvate and antibiotics, at 37 °C in a humidified atmosphere with 5% CO2. Peritoneal resident macrophages (Mph) were collected from C57BL/6 mice, obtained from the animal facility at the Institute for Biological Research “Siniša Stanković” (University of Belgrade), via peritoneal lavage with ice‐cold PBS. Cells were counted and seeded in 96‐well plates and incubated overnight, as described above. Before treatment, non‐adherent cells were removed.
Isolation of cells from animals were performed in accordance to local guidelines and approved by the local Institutional Animal Care and Use Committee (IACUC).
Staining Protocols for Flow Cytometric Analysis. For AnnV/PI, AO and ApoStat staining, cells were treated with an IC50 dose of 3 or 4 for 72 h, then detached with trypsin and washed with PBS. […] Finally, cells were washed in PBS, resuspended in PBS (or AnnV‐binding buffer for AnnV/PI), and analysed. […] Cells were then washed, trypsinised, dissolved in PBS and analysed by CyFlow® Space Partec using the PartecFloMax® software (Partec GmbH, Münster, Germany).
Staining Protocols for Fluorescence Microscopy. […]

[2] = test system: MCF‐7 cells; assay: CV viability of MCF‐7 exposed to 3 together with autophagy inhibitors; format: cell-based, human; conditions: MCF‐7, 3 together with CQ or 3‐MA (0.5 mM), 72 h, CV assay
Method: Colorimetric assays for cellular viability. […] Cells were then washed with tap water, dried in air, and the CV dye was dissolved in 33 % (w/v) acetic acid solution. […] The dye was then discarded, and the formed formazan (purple) was dissolved in DMSO. The absorbance was measured with an automated microplate reader at λmax 540 nm, with the reference λmax 670 nm. Untreated cells or cells treated only with BSA (control) were also measured, as reference for BSA‐free and BSA‐containing drug formulations, respectively. […] Cell viability is expressed as percentage (%) relative to control (untreated cultures).58 Experiments were run in three independent replicates. […] Non‐linear regression analyses of the obtained results was done using GraphPad Prism software to calculate IC50 values. page 17: Figure S15. […] MA, 0.5 mM) for 72 h, from CV assay. Data are expressed as indicated above for Figure S11. * indicates statistically significant (p < 0.05) values, with respect to the control, # with respect to cells treated with 3. S16 (1 picture or pasted object on this page, not shown here)

“closo ‐[3‐(η^6‐p‐Cymene)‐1‐(quinolin‐8‐yl‐acetate)‐3,1,2‐RuC2B9H10] [Compound 4]” was tested, and the “expression of LC3B (western blot)” value [1] was “significantly diminished”.
For “closo‐ [Compound 3, closo‐ [3‐(η^6‐p‐Cymene)‐1‐(CH2COOH)‐3,1,2‐RuC2B9H10]]”, the “cell viability on co‐treatment with an inhibitor of autophagy” value [2] was “restoration of cellular viability”.
